Series [1] relates to Mus musculus. Description: Anti-atherosclerosis activity in mouse assessed as reduction in PCSK9 level in liver at 15 mg/kg, po measured for 3 weeks by Western blot analysis. It is filed as functional, organism-based.
Series [2] in a line: AUC (0 to infinity) in C57 mouse at 5 mg/kg, po. In kind it is ADME, organism-based. The following applies: in vivo.
The nature of series [3]: Cmax in C57 mouse at 5 mg/kg, po. To be noted: in vivo. It is filed as ADME, organism-based.
The subject of series [4] is Mus musculus. Description: Anti-atherosclerosis activity in mouse assessed as reduction in plaque area in aorta at 15 mg/kg, po measured for 3 weeks. In kind it is functional, organism-based.
Series [5] has as its system Mus musculus. Description: Anti-atherosclerosis activity in mouse assessed as […] in LDL level in liver at 15 mg/kg, po measured for 3 weeks. In kind it is functional, organism-based.
Series [6] has as its system THP-1. Description: Antiproliferative activity human THP-1 cells assessed as inhibition of cell growth incubated for 24 hrs by MTT assay. In kind it is functional, cell-based. For orientation: Formazan colour is commonly taken as a measure of viable cells.
The nature of series [7]: Toxicity in mouse assessed as heart damage at 5 to 15 mg/kg, po. In kind it is organism-based. To be noted: in vivo, dose 5-15 mg/kg.
The test system of series [8] is Mus musculus. Description: Anti-atherosclerosis activity in mouse assessed as reduction in LDLR level in liver at 15 mg/kg, po measured for 3 weeks by Western blot analysis. In kind it is functional, organism-based. In general terms: Immunoblotting shows a protein as a band on a membrane.
Series [9] has as its system THP-1. Description: Anti-atherosclerosis activity in human THP-1 cells transfected with PCSK9 siRNA assessed as reduction in ox-LDL-induced amount of red lipid droplets at 100 nM preincubated with compound for 24 hrs followed by ox-LDL induction and measured after 24 hrs by oil red staining based analysis. The following applies: time 48.0 hrs. It is filed as functional, cell-based.

A short description of series [10]: AUC (0 to infinity) in C57 mouse at 5 mg/kg, iv. It is filed as ADME, organism-based. The following applies: in vivo.
A short description of series [11]: Tmax in C57 mouse at 5 mg/kg, ip. It is filed as ADME, organism-based. To be noted: in vivo.
Series [12] has as its system HUVEC. Description: Anti-atherosclerosis activity in human HUVEC cells transfected with PCSK9 siRNA assessed as inhibition of ox-LDL-induced caspase 3 expression at 100 nM preincubated with compound for 24 hrs followed by ox-LDL induction and measured after 24 hrs by Western blot analysis. In kind it is functional, cell-based. The following applies: time 48.0 hrs.
Series [13] concerns HUVEC. Description: Anti-atherosclerosis activity in human HUVEC cells transfected with PCSK9 siRNA assessed as inhibition of LPS-induced ICAM-1 mRNA expression at 100 nM preincubated with compound for 24 hrs followed by LPS induction and measured after 24 hrs by qPCR analysis. In kind it is functional, cell-based. The following applies: time 48.0 hrs. In general terms: In qPCR the cycle at which signal appears reflects the starting amount.

Series [14] in a line: AUC (0 to t) in C57 mouse at 5 mg/kg, ip. It is filed as ADME, organism-based. To be noted: in vivo.
Series [15] has as its system THP-1. Description: Anti-atherosclerosis activity in human THP-1 cells transfected with PCSK9 siRNA assessed as reduction in NF-kappaB level at 100 nM preincubated with compound for 24 hrs followed by ox-LDL induction and measured after 24 hrs by Western blot analysis. In kind it is functional, cell-based. To be noted: time 48.0 hrs.
The subject of series [16] is THP-1. Description: Anti-atherosclerosis activity in human THP-1 cells transfected with PCSK9 siRNA assessed as reduction in NLRP3 level at 100 nM preincubated with compound for 24 hrs followed by ox-LDL induction and measured after 24 hrs by Western blot analysis. To be noted: time 48.0 hrs. It is filed as functional, cell-based.
Series [17] in a line: Tmax in C57 mouse at 5 mg/kg, po. It is filed as ADME, organism-based. To be noted: in vivo.
Series [18] has as its system Mus musculus. Description: Anti-atherosclerosis activity in mouse assessed as reduction in NLRP3 level in liver at 15 mg/kg, po measured for 3 weeks by Western blot analysis. It is filed as functional, organism-based.
For series [19], the system named is Huh-7. Description: Induction of autophagy in human Huh-7 cells assessed as reduction in PCSK9 level at 100 nM incubated for 24 hrs in presence of EBSS by Western blot analysis. In kind it is functional, cell-based.
Series [20] deals with HUVEC. Description: Anti-atherosclerosis activity in human HUVEC cells assessed as reduction in Bax level at 100 nM incubated for 24 hrs by Western blot analysis. In kind it is functional, cell-based.
The test system of series [21] is Mus musculus. Description: Anti-atherosclerosis activity in mouse assessed as reduction in NF-kappab level in liver at 15 mg/kg, po measured for 3 weeks by Western blot analysis. It is filed as functional, organism-based.
Series [22] can be described thus: AUC (0 to t) in C57 mouse at 5 mg/kg, iv. It is filed as ADME, organism-based. The following applies: in vivo.
The nature of series [23]: AUC (0 to infinity) in C57 mouse at 5 mg/kg, ip. In kind it is ADME, organism-based. The following applies: in vivo.
Series [24] relates to Huh-7. Description: Induction of autophagy in human Huh-7 cells assessed as reduction in PCSK9 level at 37 uM incubated for 24 hrs in presence of chloroquine by Western blot analysis. It is filed as functional, cell-based.
Series [25] concerns THP-1. Description: Anti-atherosclerosis activity in human THP-1 cells transfected with PCSK9 siRNA assessed as reduction in CD36 level at 100 nM preincubated with compound for 24 hrs followed by ox-LDL induction and measured after 24 hrs by Western blot analysis. To be noted: time 48.0 hrs. It is filed as functional, cell-based.
Series [26] concerns HUVEC. Description: Antiproliferative activity human HUVEC cells assessed as inhibition of cell growth incubated for 24 hrs by MTT assay. In kind it is toxicity, cell-based.
In a further series the test system is HepG2. Description: Antiproliferative activity human HepG2 cells assessed as inhibition of cell growth incubated for 24 hrs by MTT assay. It is filed as functional, cell-based.
Series [27] in a line: Toxicity in mouse assessed as change in body weight at 5 to 15 mg/kg, po. It is filed as organism-based. To be noted: in vivo, dose 5-15 mg/kg.
The test system of series [28] is HUVEC. Description: Anti-atherosclerosis activity in human HUVEC cells transfected with PCSK9 siRNA assessed as increase in Bcl-2 level at 100 nM incubated for 24 hrs by Western blot analysis. It is filed as functional, cell-based.
The subject of series [29] is HUVEC. Description: Anti-atherosclerosis activity in human HUVEC cells transfected with PCSK9 siRNA assessed as inhibition of LPS-induced VCAM-1 mRNA expression at 100 nM preincubated with compound for 24 hrs followed by LPS induction and measured after 24 hrs by qPCR analysis. It is filed as functional, cell-based. To be noted: time 48.0 hrs.
Series [30] in a line: AUC (0 to t) in C57 mouse at 5 mg/kg, po. It is filed as ADME, organism-based. To be noted: in vivo.
Series [31] concerns HUVEC. Description: Anti-atherosclerosis activity in human HUVEC cells transfected with PCSK9 siRNA assessed as inhibition of ox-LDL-induced caspase 9 expression at 100 nM preincubated with compound for 24 hrs followed by ox-LDL induction and measured after 24 hrs by Western blot analysis. In kind it is functional, cell-based. The following applies: time 48.0 hrs.
Series [32] in a line: Toxicity in mouse assessed as kidney damage at 5 to 15 mg/kg, po. The following applies: in vivo, dose 5-15 mg/kg. In kind it is organism-based.
A short description of series [33]: Bioavailability in C57 mouse at 5 mg/kg, ip. In kind it is ADME, organism-based. To be noted: in vivo.
Series [34] relates to Huh-7. Description: Induction of autophagy in human Huh-7 cells assessed as colocalization of lysosome with LAMP1 protein at 100 nM incubated for 3 hrs by DAPI staining based fluorescence based analysis. In kind it is functional, cell-based.
Series [35] has as its system MOVAS. Description: Downregulation of PCSK9 expression in mouse MOVAS cells transfected with PCSK9 siRNA incubated for 24 hrs Western blot analysis. It is filed as functional, cell-based.
The subject of series [36] is Huh-7. Description: Induction of autophagy in human Huh-7 cells assessed as reduction in PCSK9 level at 100 nM incubated for 24 hrs in presence of carfilzomib by Western blot analysis. It is filed as functional, cell-based.
Series [37] relates to Huh-7. Description: Antiproliferative activity human Huh-7 cells assessed as inhibition of cell growth incubated for 24 hrs by MTT assay. It is filed as functional, cell-based.
The nature of series [38]: Oral bioavailability in C57 mouse at 5 mg/kg. It is filed as ADME, organism-based. The following applies: in vivo.
Series [39] deals with Huh-7. Description: Induction of autophagy in human Huh-7 cells assessed as colocalization of lysosome with LC3B protein at 100 nM incubated for 3 hrs by DAPI staining based fluorescence based analysis. In kind it is functional, cell-based.
In series [40] the test system is Huh-7. Description: Induction of LDL uptake in human Huh-7 cells at 100 nM incubated for 24 hrs by DiI-LDL DMEM staining based fluorescence microplate reader assay. It is filed as functional, cell-based.
Series [41] deals with MOVAS. Description: Antiproliferative activity mouse MOVAS cells assessed as inhibition of cell growth incubated for 24 hrs by MTT assay. In kind it is functional, cell-based.
The subject of series [42] is Mus musculus. Description: Anti-atherosclerosis activity in mouse assessed as reduction in TC level in plasma at 15 mg/kg, po measured for 3 weeks. It is filed as functional, organism-based.
A short description of series [43]: Cmax in C57 mouse at 5 mg/kg, ip. In kind it is ADME, organism-based. The following applies: in vivo.

As usually defined, the AUC is the area under the concentration-time curve, a measure of exposure. Lower therefore signals less exposure. The term Cmax denotes the highest concentration seen after dosing. One may read the Tmax as the time from dosing to the highest level. By AUC(0-t) is commonly meant exposure summed from dosing to a finite time, without extrapolation to infinity. The low end stands for low exposure, the high end for high exposure. As usually defined, the AUC(0-inf) is total exposure, with the tail of the curve extrapolated. High values mean more exposure, low ones less exposure. For orientation: bioavailability means the share of a dose that reaches the circulation, judged against a reference dose that is usually intravenous. High values mean good availability, low ones poor availability.

The source made the active and inactive calls. No cut-off for these calls is given here.

Consider `COc1cc2c(cc1OCCOCCOCCOCCN1C(=O)/C(=C\c3cc(Br)c(O)c(Br)c3)c3cc(I)ccc31)C(C)(CC(=O)Nc1nccs1)NCC2` (stereo not given), for which the result with Mus musculus [1], in the series with Mus musculus [4], in the series on Mus musculus [5], in the series on THP-1 [6], in the series with Mus musculus [8] and in the series on THP-1 [9] was Active. Besides, the result with HUVEC [12], with HUVEC [13], in the series on THP-1 [15], in the series on THP-1 [16], with Mus musculus [18] and in the series with Huh-7 [19] was Active. Also, the outcome in the series on HUVEC [20], in the series on Mus musculus [21], in the series on THP-1 [25], in the series with HepG2, in the series on HUVEC [28] and in the series with HUVEC [29] was Active. Besides, the outcome with HUVEC [31], with Huh-7 [34], with MOVAS [35], in the series with Huh-7 [36], with Huh-7 [37] and in the series on Huh-7 [39] was Active. In addition, the outcome with Huh-7 [40], with MOVAS [41] and in the series on Mus musculus [42] was Active. The AUC in [2] (mouse, po, 5 mg/kg) worked out at 177 ng·h/mL; in series [10] (mouse, iv, 5 mg/kg) it was 9932 ng·h/mL. For the same compound, the Cmax in series [3] was found to be 57.8 ng/mL; in series [43], 1860 ng/mL. Also, the Activity result (in series [7]; in the series with HUVEC [26]; in series [27]; in series [32]) was “Non-toxic” each time. For the same compound, the Tmax came to 30 min in [11] and 15 min in series [17]. In addition, the AUC(0-t) in series [14] amounted to 6070 ng·h/mL; in series [22], 9500 ng·h/mL; in [30], 59.8 ng·h/mL. In [23], the AUC(0-inf) stood at 6350 ng·h/mL. The outcome in the series with Huh-7 [24] was inactive. The same compound showed a bioavailability in series [33] of 63.9%. The compound further returned a F in series [38] (mouse, po, 5 mg/kg) of 0.63%.
For the compound `O=C1Nc2ccc(I)cc2/C1=C/c1cc(Br)c(O)c(Br)c1`, the result in the series with Huh-7 [34] and with Huh-7 [39] was inactive.
Consider `COc1cc2c(cc1O)C(C)(CC(=O)Nc1nccs1)NCC2` (stereo not given), for which the result in the series on Huh-7 [34] and with Huh-7 [39] was inactive.
As to `COc1cc2c(cc1OCCCCN1C(=O)/C(=C\c3cc(Br)c(O)c(OC)c3)c3cc(Br)ccc31)C(C)(CC(=O)Nc1nccs1)NCC2` (stereo not given), the AUC(0-inf) was 119 ng·h/mL in series [2] (C57, mouse); 10600 ng·h/mL in series [10] (C57, mouse); 987 ng·h/mL in [23]. The Cmax in series [3] turned out to be 55 ng/mL; in [43] it was 423 ng/mL. For the same compound, the Tmax in [11] and in series [17] was 60 min in each case. Moreover, the AUC(0-t) in series [14] was found to be 951 ng·h/mL; in series [22] it was 9810 ng·h/mL; in [30], 101 ng·h/mL. The bioavailability in series [33] worked out at 9.69%; in series [38] (C57, mouse), 1.02%.

The values are drawn from ChEMBL document CHEMBL6134871, “PCSK9 Targeted Autophagosome-Tethering Compounds: Design, Synthesis, and Antiatherosclerosis Evaluation” (J Med Chem, 2025).
